# Patent US20250228857A1, “BIOSENSOR AND USES THEREOF” (The Johns Hopkins University, priority 2022, published 2025)
# Read-outs that look alike come from different tables or passages of the source.
# Key:
# NRVMs = assay: NRVM cell viability after 48 hour compound incubation; assay type: cell-based, rat; conditions: 48-hour exposure
# Source text: FIGS. 3A-3H show which drugs in clinical use inhibit CaMKII in cardiac cells. (FIG. 3A) Fluorescence imaging timelapse of CaMKAR expressing neonatal rat ventricular cardiomyocytes (NRVMs) and (FIG. 3B) summary data during 3 Hz field pacing (n=1,065-1,160 cells). R/R0=R normalized to mean R prior to stimulation. Scale bar=50 μm. […] CaMKII inhibition % defined by min-max normalization between untreated and maximally stimulated CaMKAR signal. […] (FIG. 3E) Summary data from D at 60 seconds post stimulation. […] (FIG. 3H) Cell viability after 48 hour compound incubation. All measurements are taken from >3 biological replicates. ns=p>0.05, ****p<0.0001; significance determined via one-way ANOVA and Dunnett's multiple comparisons test (FIGS. 3C,3 E); two-way ANOVA and Tukey's multiple comparisons test (FIG. 3F).
# Rat hippocampal neurons were cultured as previously described (38).
# type 1 diabetic mice = assay: Atrial fibrillation induction by atrial burst pacing in type 1 diabetic mice; assay type: in vivo, mouse; conditions: 75 mg/kg i.p. single dose 10 minutes prior
# Source text: (§1) (FIG. 7A) Representative type 1 diabetic mouse tracings immediately after atrial burst pacing. […] (FIG. 7B) Atrial fibrillation (AF) inducibility percentage from mice in FIG. 7A. Number of mice analyzed per group shown in each column: 9/16 vehicle treated mice had AF vs. 2/15 Rux-treated mice. (FIG. 7C) Sequential atrial fibrillation (AF) inducibility in OGT-transgenic mice. […] Number of mice analyzed per group shown in each column (Vehicle=5/5 had AF, Rux=1/5 had AF). […] Statistical comparisons were performed using 2-tailed Fischer's exact test (FIGS. 7B, 7C); two-way ANOVA with Sidak's multiple comparison's test (FIG. 7D); paired Student's T-test (FIG. 7E); *p<0.05, ****p<0.0001.
# Diabetic Mouse Model. Type-1 diabetes (T1D) was induced as previously described (57) in adult male C57BL/6J mice (The Jackson Laboratory, ME, USA) by a single intraperitoneal injection of streptozotocin (STZ)(185 mg/kg, Sigma-Aldrich) dissolved in a citrate buffer (citric acid and sodium citrate, pH 4.0) after a six hour fast. Mice were maintained on normal chow diet (NCD) (7913 irradiated NIH-31 modified 6% mouse/rat diet—15 kg, Envigo, Indianapolis, TN). Mice were considered diabetic if blood glucose level was ≥300 mg/dl via tail vein blood checked with a glucometer—OneTouch Ultra 2 (LifeScan, Zug, Switzerland). […]
# OGT-transgenic mice = assay: Sequential atrial fibrillation inducibility in OGT-transgenic mice; assay type: in vivo, mouse; conditions: 75 mg/kg prior to second pacing
# Source text: as §1
# 75 mg/kg dosing was chosen due to previous studies determining this dose to be equivalent to the 20-25 mg dose in humans based on plasma concentration (47-49). In vivo electrophysiology (EP) studies were performed as previously reported (57) in mice anesthetized with isoflurane (2% for induction and 1.5% for maintenance of anesthesia; Isotec 100 Series Isoflurane Vaporizer; Harvard Apparatus). AF was defined as the occurrence of rapid and fragmented atrial electrograms with irregular AV-nodal conduction and ventricular rhythm for at least 1 second. If 1 or more atrial bursts (out of 5) were an AF episode, the mouse was considered to have inducible AF. […]
# CREM-IbAC-X mice = assay: Spontaneous atrial fibrillation in CREM-IbAC-X mice; assay type: in vivo, mouse; conditions: 75 mg/kg i.p., 10 minutes after treatment
# Source text: as §1
# Spontaneous AF. 8-months-old CREM-IbAC-X mice were monitored via surface ECG for 15 minutes to establish the baseline for time spent in atrial fibrillation (AF). AF was defined as loss of p-waves and irregularly irregular R-R intervals for >10 seconds. Each mouse was monitored at least twice with more than 24 hours interval between two recordings. After establishing the baseline, the mice were injected with placebo (10% DMSO, 2.5% Tween-20 in saline; i.p. injections) and the 15-minute ECGs were recorded between 10-25 minutes post injection.
# C57BL/6J mice [1] = assay: Novel object recognition test (NORT); assay type: in vivo, mouse; conditions: 75 or 41 mg/kg; single dose 1 hour prior or twice daily for 7 days
# C57BL/6J mice [2] = assay: Y maze spatial recognition memory test; assay type: in vivo, mouse
# C57BL/6J mice [3] = assay: Barnes maze; assay type: in vivo, mouse; conditions: 150 mg/kg/day
# Description: (FIG. 20B) Latency to escape the Barnes maze during the probe trial (day 6). There was no significant deficit in ruxolitinib (Rux) treated mice over vehicle (Veh). Datapoints represent individual mice. (FIGS. 20C-20E) Latency to escape maze, primary errors, and total errors of mice subjected to Barnes maze during the 4 training trials. Statistical testing shown below each graph with proportion and significance of variance by each parameter. Data shown as mean±SEM. Significance was determined via Student's T-test (FIG. 20B), or two-way ANOVA (FIGS. 20C-20E).
# For the Barnes maze: A brightly lit (1100 lux) Barnes maze with 20 evenly spaced holes and an escape box placed under one of the holes was used (Maze Engineers). During training, each mouse was placed in the center of the maze and allowed to explore the maze for 3 minutes per trial. During the trial, the number of head dips and the latency to find and then enter the escape box were recorded. Mice were given two trials per day for four days. 24 hours following training, mice were given a probe trial, with the number of head dips and latency to find and then enter the escape box recorded.
# [4] = rats; cited from earlier work
# [5] = in vivo; cited from earlier work
# [6] = in vivo; cited from earlier work; remark: listed apart in the source
# [7] = cited from earlier work
# 293T cells = assay: Cell viability in 293T cells (CellTiter-Glo 2.0); conditions: 12-hour exposure
# [8] = test system: WT and RyR2^R176Q/WT mice; assay: ECG heart rate and electrophysiologic parameters in WT and RyR2^R176Q/WT mice
# [9] = biological target: CaMKAR (CaMKII Activity Reporter) (human); assay: cell-based or functional assay
# CaMKII^T287D = biological target: T1, CaMKII^T287D (Homo sapiens, UniProt Q13557, T287D); assay: CaMKII inhibition in 293T cells expressing CaMKAR and CaMKII^T287D (high content imaging); assay type: cell-based; conditions: HEK293T cells, IC50 curves
# T1 construct: expressed in transfected cells; host or cells: HEK293T
# CaMKII [10] = biological target: T2, CaMKII (Rattus norvegicus, UniProt P15791); assay: Pacing-induced CaMKII activity in CaMKAR-expressing neonatal rat ventricular myocytes (NRVMs); assay type: cell-based
# T2 construct: endogenous in cells; host or cells: neonatal rat ventricular myocytes (Sprague-Dawley)
# CaMKII [11] = conditions: HEK293T cells and in vitro by independent commercial laboratory
# [12] = test system: Purified recombinant CaMKAR
# [13] = biological target: T3, constitutively active CaMKIIδT287D (Homo sapiens, UniProt Q13557, T287D); assay: CaMKAR-based high throughput primary screen in K562^CaMKII-CaMKAR cells; assay type: cell-based; conditions: 5 μM per compound, 12 hours
# T3 construct: P2A-mCherry (C); expressed in transfected cells; host or cells: K562 (lentiviral, doxycycline-induced)
# CaMKII [14] = biological target: CaMKII (Homo sapiens, UniProt Q13557); assay type: biochemical; conditions: 5 μM drug, 100 μM ATP
# CaMKII [15] = conditions: cited from earlier work
# [16] = long-term ruxolitinib, median exposures 11.1 and 34.4 months
compound,measurement,setting,value
N#CC[C@H](C1CCCC1)n1cc(-c2ncnc3[nH]ccc23)cn1 [ruxolitinib],well tolerated concentration,NRVMs,up to 100 μM
same,mice with AF / mice analyzed,type 1 diabetic mice,2/15
same,mice with AF / mice analyzed,OGT-transgenic mice,1/5
same,percent time in AF,CREM-IbAC-X mice,33.63%
same,"novel object recognition, percent time spent with the novel object",C57BL/6J mice [1],Neither single dose (1 hour prior) nor multiple doses (twice daily for 7 days) of ruxolitinib (75 or 41 mg/kg) caused significant differences in novel object recognition
same,decreased preference for the novel arm,C57BL/6J mice [2]; higher dose single dosing and both multiple dosing cohorts,not seen
same,preference for the novel arm,"C57BL/6J mice [2]; single dosing, lower dose (41 mg/kg)",decreased preference for the novel arm
same,"latency, primary errors, and total errors during training trials",C57BL/6J mice [3],no significant effect
same,maze solving latency at study endpoint (probe trial),C57BL/6J mice [3]; day 6,no difference
same,plasma concentration over brain concentration,[4],29 fold
same,CNS penetrance,[5],3.5% (64)
same,maximum human plasma concentration,[6],1510 nM
same,Maximum dose used in humans,[7]; FDA-approved,25 mg BID (96)
same,Maximum dose used in humans,[7]; Healthy volunteers,200 mg QD (76)
same,well-tolerated dose,"[7]; healthy volunteers, short-term dosing",up to 200 mg
same,patients discontinuing treatment due to anemia,[7]; [16],< 2.6%
same,patients discontinuing treatment due to thrombocytopenia,[7]; [16],< 3.6%
same,cognitive deficits in patients,[7]; prescribed for over a decade,without reported overt cognitive deficits
same,toxicity compared with AS100397,293T cells,less toxic
same,PR,"[8]; RyR^R176Q/WT mice, Baseline",39.5 ± 1 ms
same,QTc,"[8]; RyR^R176Q/WT mice, Baseline",36.5 ± 5 ms
same,PR,"[8]; RyR^R176Q/WT mice, EPI",42.2 ± 4 ms
same,QTc,"[8]; RyR^R176Q/WT mice, EPI",49.5 ± 4 ms
same,PR,"[8]; RyR^R176Q/WT mice, ISO",43.1 ± 3 ms
same,QTc,"[8]; RyR^R176Q/WT mice, ISO",51.6 ± 5 ms
same,PR,"[8]; WT mice, Baseline",43.4 ± 4 ms
same,QTc,"[8]; WT mice, Baseline",48.6 ± 6 ms
same,PR,"[8]; WT mice, EPI",45.9 ± 2.7 ms
same,QTc,"[8]; WT mice, EPI",55.7 ± 8 ms
same,PR,"[8]; WT mice, ISO",43.8 ± 4 ms
same,QTc,"[8]; WT mice, ISO",49.2 ± 4 ms
Constitutively active CaMKIIδC (T287D mutation) (from UniProt Q13557 1-499),"Maximal amplitude change of CaMKAR signal (R/R0), HEK293T cells, ionomycin",[9],227%
CCN1CCN(Cc2ccc(Nc3ncc(F)c(-c4cc(F)c5nc(C)n(C(C)C)c5c4)n3)nc2)CC1 [abemaciclib],CNS penetrance,[5],11-16.6%
same,maximum human plasma concentration,[6],243 nM
same,Maximum dose used in humans,"[7]; human, in vivo",200 mg BID
CC1(COc2ccc3c(c2)ncn3-c2ccc3cccc(N4CCC(N)CC4)c3n2)COC1 [crenolanib],potency compared with AS100397,CaMKII^T287D,more potent than AS100397
same,inhibition of pacing-induced CaMKII activity at maximal human plasma concentration,"CaMKII [10]; 3 Hz pacing, ruxolitinib 1.51 μM, crenolanib 478 nM, abemaciclib 243 nM, baricitinib 58 nM, silmitasertib 3.42 μM",sustained inhibition
same,confirmed CaMKII inhibitor after re-test,CaMKII [11],potent CaMKII inhibitors
same,maximum human plasma concentration,[6],478 nM
same,Maximum dose used in humans,"[7]; human, in vivo",100 mg TID
same,toxicity compared with AS100397,293T cells,all drugs except crenolanib were less toxic
Purified CaMKIIδc,"dynamic range of CaMKAR ratio in vitro, plate reader, Ca2+/CaM and ATP",[12],CaMKAR displays a larger dynamic range in vitro (264±2.1%)
same,spectral changes of purified CaMKAR in vitro,[12],Recombinant CaMKAR is fully functional and exhibits appropriate spectral changes upon incubation with purified CaMKII
"O=C(Nc1nc2cccc(-c3ccc(CN4CCS(=O)(=O)CC4)cc3)n2n1)C1CC1 [Filgotinib, filgotinib]",inhibition of pacing-induced CaMKII activity,CaMKII [10]; 0.5 μM and 2 μM pre-treatment,failed to inhibit
CCS(=O)(=O)N1CC(CC#N)(n2cc(-c3ncnc4[nH]ccc34)cn2)C1 [baricitinib],CNS penetrance,[5],20% (103)
same,maximum human plasma concentration,[6],58 nM
same,Maximum dose used in humans,[7]; FDA-approved,4 mg QD (97)
same,Maximum dose used in humans,[7]; Healthy volunteers,40 mg (98)
same,toxicity compared with AS100397,293T cells,less toxic
CN[C@@H]1C[C@H]2O[C@@](C)([C@@H]1OC)n1c3ccccc3c3c4c(c5c6ccccc6n2c5c31)C(=O)NC4 [staurosporine],CaMKAR signal / hit in primary screen,[13],returned
same,inhibition in secondary screen (CaMKAR in vitro assay),CaMKII [14],returned
O=C(O)c1ccc2c(c1)nc(Nc1cccc(Cl)c1)c1ccncc12 [silmitasertib],maximum human plasma concentration,[6],3420 nM
same,Maximum dose used in humans,"[7]; human, in vivo",1000 mg BID
COc1ccc(S(=O)(=O)N(CCO)c2ccccc2CN(C)CC=Cc2ccc(Cl)cc2)cc1 [KN-93],inhibition of autonomously hyperactive CaMKII,CaMKII [15],fail to inhibit
"CN([C@@H](Cc1ccc(OS(=O)(=O)c2cccc3cnccc23)cc1)C(=O)N1CCN(c2ccccc2)CC1)S(=O)(=O)c1cccc2cnccc12 [KN-62, 1-[N,O-bis(5-isoquinolinesulfonyl)-N-methyl-L-tyrosyl]-4-phenylpiperazine]",inhibition of autonomously hyperactive CaMKII,CaMKII [15],fail to inhibit
"O=c1c(O)c(-c2ccc(O)c(O)c2)oc2ccccc12 [DiOHF, 3′,4′-dihydroxyflavonol]",IC50,CaMKII [15]; read-out: published IC50,250 nM
